Patent publication US8377884B2, “Variants of C-type natriuretic peptides” (Biomarin Pharmaceutical Inc., priority 2007, dated 2013)
Entries after “also recorded” stand apart in the source; their conditions may differ. Like-named read-outs stand apart in the source and are kept apart here. One block for each compound: values may come before it. Bridge positions count the residues as written; N and C are the ends. Peptide text beside a SMILES is read from it. * marks the point of attachment. CH3O(CH2CH2O)11CH2CH2CO = COCCOCCOCCOCCOCCOCCOCCOCCOCCOCCOCCOCCC(=O)*

Legend:
[1] = target: neutral endopeptidase (NEP) (Homo sapiens, UniProt P08473); experiment: In vitro neutral endopeptidase (NEP) cleavage assay; conditions: human, pH 7
Method in brief: (§1)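 Recombinant human NEP (1 ug/mL final) incubated with 100 uM CNP variant in 0.1 M Tris, pH 7, at 37° C for various times, then quenched with EDTA (10 mM final) and heat. Samples reduced and analysed by HPLC and mass spectrometry. Half-life derived from loss of intact variant over time.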

[2] = target: Recombinant human NEP (Homo sapiens, UniProt P08473); experiment: as above; conditions: for NEP Cleavage (t1/2, min): pH 7
Method in brief: as §1

[3] = target: T1, NPR-B (Mus musculus, UniProt Q6VVW5); experiment: Stimulation of cGMP production in NIH3T3 cells; format: cell-based, Murine; conditions: for cGMP response relative to 1 uM CNP22 (%) at 0.01 µM: read-out: cGMP Response rel. to 1 uM CNP22, 10 nM; for cGMP response relative to 1 uM CNP22 (%) at 1 µM: read-out: cGMP Response rel. to 1 uM CNP22, 1 uM
T1 construct: Murine NIH3T3 cells express endogenously the CNP signaling receptor, NPR-B; endogenous in cells; host or cells: NIH3T3 (murine fibroblasts)
T1 sequence (Q6VVW5 17-1047): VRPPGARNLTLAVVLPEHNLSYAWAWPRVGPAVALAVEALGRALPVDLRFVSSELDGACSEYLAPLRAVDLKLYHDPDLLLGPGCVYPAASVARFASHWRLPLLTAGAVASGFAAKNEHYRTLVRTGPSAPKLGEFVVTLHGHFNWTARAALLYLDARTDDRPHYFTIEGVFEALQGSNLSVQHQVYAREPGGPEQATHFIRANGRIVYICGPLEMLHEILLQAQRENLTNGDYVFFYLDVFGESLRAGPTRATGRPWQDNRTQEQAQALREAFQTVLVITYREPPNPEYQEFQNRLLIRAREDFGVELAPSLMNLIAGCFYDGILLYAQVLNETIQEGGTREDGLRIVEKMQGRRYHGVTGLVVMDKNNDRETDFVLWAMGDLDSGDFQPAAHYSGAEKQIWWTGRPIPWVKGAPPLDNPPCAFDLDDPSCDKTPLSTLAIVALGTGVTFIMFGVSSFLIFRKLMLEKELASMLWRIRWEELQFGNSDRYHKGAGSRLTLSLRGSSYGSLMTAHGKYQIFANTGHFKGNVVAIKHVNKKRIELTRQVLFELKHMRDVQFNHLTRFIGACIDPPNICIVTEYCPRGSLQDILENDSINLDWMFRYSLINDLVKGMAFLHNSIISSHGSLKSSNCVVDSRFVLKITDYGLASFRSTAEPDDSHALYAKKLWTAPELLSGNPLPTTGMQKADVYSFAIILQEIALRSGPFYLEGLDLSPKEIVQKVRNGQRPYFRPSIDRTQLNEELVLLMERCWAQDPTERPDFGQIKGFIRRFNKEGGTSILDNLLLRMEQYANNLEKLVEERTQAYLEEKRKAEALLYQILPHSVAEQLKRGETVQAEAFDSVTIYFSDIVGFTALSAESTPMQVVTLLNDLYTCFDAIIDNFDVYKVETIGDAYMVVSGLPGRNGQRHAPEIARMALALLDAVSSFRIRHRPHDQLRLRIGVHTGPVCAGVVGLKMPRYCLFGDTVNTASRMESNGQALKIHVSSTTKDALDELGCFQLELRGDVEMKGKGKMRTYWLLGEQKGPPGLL

[4] = in vitro NEP cleavage assay, assay period 160 minutes
[5] = NIH3T3 cells, 10 nM natriuretic peptide, normalized to cell number and cGMP production with 1 uM wtCNP22
[6] = NIH3T3 cells, 1 uM natriuretic peptide, normalized to cell number and cGMP production with 1 uM wtCNP22

Chain of Recombinant human NEP (P08473 whole entry): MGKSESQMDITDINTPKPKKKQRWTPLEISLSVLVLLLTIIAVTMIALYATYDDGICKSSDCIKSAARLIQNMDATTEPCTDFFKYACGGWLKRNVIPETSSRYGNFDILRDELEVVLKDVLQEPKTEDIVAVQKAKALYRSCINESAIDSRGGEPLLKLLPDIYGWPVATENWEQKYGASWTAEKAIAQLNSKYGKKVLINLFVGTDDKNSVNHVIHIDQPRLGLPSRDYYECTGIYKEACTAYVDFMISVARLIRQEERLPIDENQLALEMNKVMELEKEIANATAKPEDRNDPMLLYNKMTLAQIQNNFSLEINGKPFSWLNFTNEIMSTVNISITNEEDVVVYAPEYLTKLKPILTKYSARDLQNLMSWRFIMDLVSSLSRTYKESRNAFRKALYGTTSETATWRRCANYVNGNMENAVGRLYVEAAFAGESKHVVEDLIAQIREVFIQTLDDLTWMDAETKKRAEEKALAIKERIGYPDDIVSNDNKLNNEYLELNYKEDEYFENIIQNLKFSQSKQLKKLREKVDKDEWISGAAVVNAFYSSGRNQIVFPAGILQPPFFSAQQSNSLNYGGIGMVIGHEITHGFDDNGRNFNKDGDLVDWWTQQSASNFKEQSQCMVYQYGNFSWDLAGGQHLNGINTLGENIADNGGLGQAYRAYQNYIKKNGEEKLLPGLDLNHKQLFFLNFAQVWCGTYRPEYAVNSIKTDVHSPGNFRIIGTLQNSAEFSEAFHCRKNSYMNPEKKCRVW
Chain of neutral endopeptidase (NEP) (P08473 whole entry): as above

Compound: CC[C@H](C)[C@@H]1NC(=O)[C@H](CCCNC(=N)N)NC(=O)[C@H](CC(=O)O)NC(=O)[C@H](CC(C)C)NC(=O)[C@H](CCCCN)NC(=O)[C@H](CC(C)C)NC(=O)CNC(=O)[C@H](Cc2ccccc2)NC(=O)[C@@H](NC(=O)CNC(=O)[C@H](CCCNC(=N)N)NC(=O)[C@H](CO)NC(=O)[C@H](CC(C)C)NC(=O)CN)CSSC[C@@H](C(=O)O)NC(=O)CNC(=O)[C@H](CC(C)C)NC(=O)CNC(=O)[C@H](CO)NC(=O)[C@H](CCSC)NC(=O)[C@H](CO)NC(=O)[C@H](CC(N)=O)NC1=O [BJ] (H-GLSRGCFGLKLDRINSMSGLGC-OH; disulfide 6-22 (inferred); N-terminus and C-terminus assumed)
half-life at 100 uM [1]: 2.5 h
resistance to NEP cleavage/degradation (in words) [2, 4]: greatest resistance to NEP cleavage
cGMP response relative to 1 uM CNP22 (%) at 0.01 µM ([3]; NIH3T3, […]): 4%
cGMP response relative to 1 uM CNP22 (%) at 1 µM ([3]; NIH3T3, […]): 41%

Compound: CC[C@H](C)[C@@H]1NC(=O)[C@H](CCCNC(=N)N)NC(=O)[C@H](CC(=O)O)NC(=O)[C@H](CC(C)C)NC(=O)[C@H](CCCCN)NC(=O)[C@H](CC(C)C)NC(=O)CNC(=O)[C@H](Cc2ccccc2)NC(=O)[C@@H](NC(=O)CNC(=O)[C@H](CCCNC(=N)N)NC(=O)[C@H](CO)NC(=O)[C@H](CC(C)C)NC(=O)CN)CSSC[C@@H](C(=O)O)NC(=O)CNC(=O)[C@H](CC(C)C)NC(=O)CNC(=O)[C@H](CO)NC(=O)[C@H](CCSC)NC(=O)[C@H](CO)NC(=O)[C@H](CO)NC1=O [BK] (H-GLSRGCFGLKLDRISSMSGLGC-OH; disulfide 6-22 (inferred); N-terminus and C-terminus assumed)
half-life at 100 uM [1]: ≥ 2.67 h
resistance to NEP cleavage/degradation (in words) [2, 4]: greatest resistance to NEP cleavage
cGMP response relative to 1 uM CNP22 (%) at 0.01 µM ([3]; NIH3T3, […]): 13 ± 1%
cGMP response relative to 1 uM CNP22 (%) at 1 µM ([3]; NIH3T3, […]): 71 ± 11%

Compound: CC[C@H](C)[C@@H]1NC(=O)[C@H](CCCNC(=N)N)NC(=O)[C@H](CC(=O)O)NC(=O)[C@H](CC(C)C)NC(=O)[C@H](CCCCN)NC(=O)[C@H](CC(C)C)NC(=O)CNC(=O)[C@H](Cc2ccccc2)NC(=O)[C@@H](NC(=O)CNC(=O)[C@H](CO)NC(=O)CNC(=O)[C@H](CCC(N)=O)NC(=O)[C@@H](NC(=O)[C@H](CCSC)NC(=O)[C@H](CCCCN)NC(=O)[C@@H]2CCCN2C(=O)[C@@H](N)CO)C(C)C)CSSC[C@@H](C(=O)N[C@@H](CCCCN)C(=O)N[C@H](C(=O)N[C@@H](CC(C)C)C(=O)N[C@@H](CCCNC(=N)N)C(=O)N[C@@H](CCCNC(=N)N)C(=O)N[C@@H](Cc2c[nH]cn2)C(=O)O)C(C)C)NC(=O)CNC(=O)[C@H](CC(C)C)NC(=O)CNC(=O)[C@H](CO)NC(=O)[C@H](CCSC)NC(=O)[C@H](CO)NC(=O)CNC1=O [CD] (H-SPKMVQGSGCFGLKLDRIGSMSGLGCKVLRRH-OH; disulfide 10-26 (inferred); N-terminus and C-terminus assumed)
resistance to NEP cleavage/degradation (in words) [2]: much more resistant to NEP cleavage than CNP22
cGMP response relative to 1 uM CNP22 (%) at 0.01 µM [3, 5]: 25%
cGMP response relative to 1 uM CNP22 (%) at 1 µM [3, 6]: 102%

Compound: CC[C@H](C)[C@@H]1NC(=O)[C@H](CCCNC(=N)N)NC(=O)[C@H](CC(=O)O)NC(=O)[C@H](CC(C)C)NC(=O)[C@H](CCCCN)NC(=O)[C@H](CC(C)C)NC(=O)CNC(=O)[C@H](Cc2ccccc2)NC(=O)[C@@H](NC(=O)CNC(=O)[C@H](CCCCN)NC(=O)[C@H](CO)NC(=O)[C@H](CC(C)C)NC(=O)CNC(=O)[C@H](CO)NC(=O)[C@@H]2CCCN2C(=O)[C@@H]2CCCN2C(=O)[C@H](CC(C)C)NC(=O)[C@@H](NC(=O)[C@H](Cc2ccc(O)cc2)NC(=O)[C@@H](NC(=O)[C@H](CCC(N)=O)NC(=O)[C@@H]2CCCN2C(=O)[C@H](CCC(=O)O)NC(=O)[C@H](CCCNC(=N)N)NC(=O)[C@@H]2CCCN2C(=O)[C@H](CCC(N)=O)NC(=O)CN)C(C)C)[C@@H](C)O)CSSC[C@@H](C(=O)O)NC(=O)CNC(=O)[C@H](CC(C)C)NC(=O)CNC(=O)[C@H](CO)NC(=O)[C@H](CCSC)NC(=O)[C@H](CO)NC(=O)CNC1=O [CF] (H-GQPREPQVYTLPPSGLSKGCFGLKLDRIGSMSGLGC-OH; disulfide 20-36 (inferred); N-terminus and C-terminus assumed)
half-life at 100 uM [1]: > 2.67 h
resistance to NEP cleavage/degradation (in words) [2, 4]: most resistant to NEP degradation; also recorded: much more resistant to NEP cleavage than CNP22
cGMP response relative to 1 uM CNP22 (%) at 0.01 µM ([3]; NIH3T3, […]): 23 ± 9%
cGMP response relative to 1 uM CNP22 (%) at 1 µM ([3]; NIH3T3, […]): 72 ± 19%

Compound: CC[C@H](C)[C@@H]1NC(=O)[C@H](CCCNC(=N)N)NC(=O)[C@H](CC(=O)O)NC(=O)[C@H](CC(C)C)NC(=O)[C@H](CCCCN)NC(=O)[C@H](CC(C)C)NC(=O)CNC(=O)[C@H](Cc2ccccc2)NC(=O)[C@@H](NC(=O)CNC(=O)[C@H](CCCNC(=N)N)NC(=O)[C@H](CO)NC(=O)[C@H](CC(C)C)NC(=O)CNC(=O)[C@H](CCCNC(=N)N)NC(=O)[C@@H]2CCCN2C(=O)[C@H](CC(N)=O)NC(=O)[C@H](C)NC(=O)CNC(=O)CCOCCOCCOCCOCCOCCOCCOCCOCCOCCOCCOCCOC)CSSC[C@@H](C(=O)O)NC(=O)CNC(=O)[C@H](CC(C)C)NC(=O)CNC(=O)[C@H](CO)NC(=O)[C@H](CCSC)NC(=O)[C@H](CO)NC(=O)CNC1=O [PEO12-GANPR-CNP22, K4R] ({CH3O(CH2CH2O)11CH2CH2CO}-GANPRGLSRGCFGLKLDRIGSMSGLGC-OH; disulfide 11-27; C-terminus assumed)
half-life at 100 uM ([1]; recombinant human neutral endopeptidase (NEP)): 1.33 h
resistance to NEP cleavage/degradation (in words) [2]: same half-life as wtCNP22

Compound: PEG2K-CNP22: CNP22 conjugated at the N-terminus to polydispersed PEG2K
NEP Cleavage (t1/2, min) [2]: >>160 min
cGMP Response rel. to 1 uM CNP22, 10 nM [3, 5]: 6 ± 2
cGMP Response rel. to 1 uM CNP22, 1 uM [3, 6]: 32 ± 4

Continued, in another order:

cGMP response relative to 1 uM CNP22 (%) at 0.01 µM [3, 5]: 15%
cGMP response relative to 1 uM CNP22 (%) at 1 µM [3, 6]: 87%
Compound: CC[C@H](C)[C@@H]1NC(=O)[C@H](CCCNC(=N)N)NC(=O)[C@H](CC(=O)O)NC(=O)[C@H](CC(C)C)NC(=O)[C@H](CCCCN)NC(=O)[C@H](CC(C)C)NC(=O)CNC(=O)[C@H](Cc2ccccc2)NC(=O)[C@@H](NC(=O)CNC(=O)[C@H](CCCCN)NC(=O)[C@H](CO)NC(=O)[C@H](CC(C)C)NC(=O)CNC(=O)[C@H](CCC(N)=O)NC(=O)[C@H](CO)NC(=O)[C@H](CC(C)C)NC(=O)[C@H](CCCNC(=N)N)NC(=O)[C@H](C)NC(=O)[C@@H](NC(=O)[C@H](C)NC(=O)[C@H](Cc2c[nH]c3ccccc23)NC(=O)[C@H](C)NC(=O)[C@H](CCCCN)NC(=O)[C@H](Cc2ccccc2)NC(=O)[C@H](C)NC(=O)[C@H](CCCNC(=N)N)NC(=O)[C@H](CCC(=O)O)NC(=O)CN)C(C)C)CSSC[C@@H](C(=O)O)NC(=O)CNC(=O)[C@H](CC(C)C)NC(=O)CNC(=O)[C@H](CO)NC(=O)[C@H](CCSC)NC(=O)[C@H](CO)NC(=O)CNC1=O [CE] (H-GERAFKAWAVARLSQGLSKGCFGLKLDRIGSMSGLGC-OH; disulfide 21-37 (inferred); N-terminus and C-terminus assumed)
resistance to NEP cleavage/degradation (in words) [2]: much more resistant to NEP cleavage than CNP22

cGMP Response rel. to 1 uM CNP22, 10 nM [3, 5]: 15 ± 3
cGMP Response rel. to 1 uM CNP22, 1 uM [3, 6]: 68 ± 17
Compound: PEG1K-CNP22: CNP22 conjugated at the N-terminus to polydispersed PEG1K
NEP Cleavage (t1/2, min) [2]: >>160 min

cGMP Response rel. to 1 uM CNP22, 10 nM [3, 5]: 8 ± 1
cGMP Response rel. to 1 uM CNP22, 1 uM [3, 6]: 20 ± 7
Compound: PEG5K-CNP22: CNP22 conjugated at the N-terminus to polydispersed PEG5K
resistance to NEP cleavage/degradation (in words) [2]: resistant to NEP degradation over the assay period of 160 minutes
NEP Cleavage (t1/2, min) [2]: >>160 min

cGMP Response rel. to 1 uM CNP22, 10 nM [3, 5]: 0
cGMP Response rel. to 1 uM CNP22, 1 uM [3, 6]: 15
Compound: PEG20K-CNP22: CNP22 conjugated at the N-terminus to polydispersed PEG20K
NEP Cleavage (t1/2, min) [2]: >>160 min
